From EPA's ToxRefDB 2

Tests used:
[1] = tested on: mouse; conditions: Subchronic oral toxicity in rodents, b6c3f1, Gavage/Intubation, dose end: 13 week, group: systemic
[2] = tested on: rat; conditions: Subchronic oral toxicity in rodents, fischer, Gavage/Intubation, dose end: 13 week, group: systemic
[3] = tested on: rat; conditions: Multigenerational reproductive toxicity study, sprague dawley, Oral, Gavage/Intubation, dose end: 2 generation
[4] = tested on: rabbit; conditions: Prenatal developmental toxicity study, new zealand white, Oral, Gavage/Intubation, dose end: 18 GD
[5] = tested on: rat; conditions: Combined chronic toxicity/carcinogenicity; sprague dawley; Oral; Feed; dose end: 104 week; group: systemic; systemic / clinical chemistry / alkaline phosphatase (alp/alk) / alkaline phosphatase (alp/alk) + systemic / clinical chemistry / aspartate …
[6] = tested on: rat; conditions: Combined chronic toxicity/carcinogenicity; other; Oral; Feed; dose end: 2 year; group: systemic; systemic / clinical chemistry / peroxisomal beta-oxidation analysis / peroxisomal beta-oxidation analysis + systemic / organ weight / liver…
[7] = tested on: rat; conditions: Subchronic oral toxicity in rodents, Charles River CD, Feed, dose end: 90 day, group: systemic
[8] = tested on: rat; conditions: Prenatal developmental toxicity study, sprague dawley, Oral, Gavage/Intubation, dose end: 15 GD, group: maternal
[9] = tested on: rat; conditions: Subchronic oral toxicity in rodents, sprague dawley, Gavage/Intubation, dose end: 13 week, group: systemic
[10] = tested on: rabbit; conditions: Prenatal developmental toxicity study, new zealand white, Oral, Gavage/Intubation, dose end: 19 GD
[11] = tested on: rat; conditions: Combined chronic toxicity/carcinogenicity, sprague dawley, Oral, Feed, dose end: 2 year, group: systemic
[12] = tested on: dog; conditions: Subchronic oral toxicity in nonrodent, beagle, Feed, dose end: 13 week, group: systemic
[13] = tested on: mouse; conditions: Subchronic oral toxicity in rodents, cd1, Feed, dose end: 3 month, group: systemic
[14] = tested on: dog; conditions: Chronic toxicity, beagle, Oral, Feed, dose end: 1 year, group: systemic
[15] = tested on: rat; conditions: Prenatal developmental toxicity study, sprague dawley, Oral, Gavage/Intubation, dose end: 15 GD
[16] = tested on: mouse; conditions: Carcinogenicity; cd1; Oral; Feed; dose end: 18 month; group: systemic; systemic / pathology microscopic / adrenal gland / eosinophilic focus + systemic / pathology microscopic / liver / hypertrophy + systemic / …
[17] = tested on: rat; conditions: Multigenerational reproductive toxicity study, sprague dawley, Oral, Feed, dose end: 2 generation
[18] = tested on: rat; conditions: Combined chronic toxicity/carcinogenicity; sprague dawley; Oral; Feed; dose end: 2 year; group: systemic; systemic / hematology / lymphocyte / lymphocyte + systemic / hematology / neutrophils / neutrophils + systemic / in life observation / body …
[19] = tested on: rat; conditions: Subchronic oral toxicity in rodents, sprague dawley, Feed, dose end: 3 month, group: systemic
[20] = tested on: mouse; conditions: Combined chronic toxicity/carcinogenicity, cd1, Oral, Feed, dose end: 24 month, group: systemic
[21] = tested on: dog; conditions: Chronic toxicity, beagle, Oral, Feed, dose end: 53 week, group: systemic
[22] = systemic / in life observation / clinical signs / hyperactivity + systemic / in life observation / mortality / mortality + systemic / …
[23] = systemic / clinical chemistry / albumin / albumin + systemic / clinical chemistry / protein / protein + systemic / hematology / mean …
[24] = systemic / in life observation / clinical signs / lacrimation + systemic / hematology / mean corpuscular (cell) volume (mcv) / mean …
[25] = group: offspring, developmental / offspring survival late / lactation index / lactation index + developmental / offspring survival late / [other] / [other] + …
[26] = group: parental, systemic / in life observation / body weight / body weight + systemic / in life observation / body weight / body weight gain + systemic / in…
[27] = group: parental, systemic / organ weight / kidney / relative to body weight + systemic / organ weight / liver / absolute + systemic / organ weight / liver / …
[28] = group: developmental, developmental / developmental malformation / bone / full supernumerary
[29] = group: maternal, systemic / in life observation / body weight / body weight gain
[30] = systemic / organ weight / liver / absolute + systemic / organ weight / liver / relative to body weight + systemic / pathology microscopic / …
[31] = systemic / in life observation / body weight / body weight + systemic / in life observation / clinical signs / alopecia + systemic / in life…
[32] = systemic / organ weight / liver / absolute + systemic / organ weight / liver / relative to body weight + systemic / in life observation / …
[33] = systemic / organ weight / liver / relative to body weight
[34] = group: developmental, developmental / offspring survival late / viability index / viability index
[35] = group: maternal, reproductive / reproductive performance / resorptions / resorptions + systemic / in life observation / body weight / body weight + systemic…
[36] = systemic / organ weight / testes / nos + systemic / pathology microscopic / testes / atrophy
[37] = systemic / organ weight / testes / nos + systemic / pathology microscopic / testes / atrophy + systemic / in life observation / body weight…
[38] = systemic / pathology microscopic / liver / hypertrophy
[39] = systemic / pathology microscopic / liver / hypertrophy + systemic / clinical chemistry / alkaline phosphatase (alp/alk) / alkaline …
[40] = systemic / pathology microscopic / adrenal gland / hypertrophy + systemic / pathology microscopic / liver / hypertrophy + systemic / …
[41] = group: developmental, developmental / developmental malformation / bone / cervical + developmental / developmental malformation / bone / short supernumerary
[42] = group: maternal, systemic / in life observation / clinical signs / fur (altered appearance) + systemic / in life observation / clinical signs / salivation
[43] = group: maternal, systemic / in life observation / clinical signs / fur (altered appearance) + systemic / in life observation / clinical signs / salivation + …
[44] = group: offspring, systemic / in life observation / body weight / offspring (pup) weight gain
[45] = group: offspring, systemic / in life observation / body weight / offspring (pup) weight gain + developmental / offspring survival late / viability index / …
[46] = group: parental, systemic / organ weight / liver / nos + systemic / organ weight / liver / relative to body weight + systemic / in life observation / food …
[47] = group: parental, systemic / organ weight / liver / nos + systemic / organ weight / liver / relative to body weight + systemic / pathology microscopic / liver…
[48] = group: reproductive, reproductive / offspring survival early / birth index / live birth index
[49] = systemic / clinical chemistry / hepatic mixed function oxidase (mfo) assay / hepatic mixed function oxidase (mfo) assay
[50] = systemic / clinical chemistry / hepatic mixed function oxidase (mfo) assay / hepatic mixed function oxidase (mfo) assay + systemic / …
[51] = systemic / pathology microscopic / liver / hypertrophy + systemic / clinical chemistry / alanine aminotransferase (alt/sgpt) / alanine …

## C[N+](C)(C)Cc1ccccc1.[Cl-] [Benzyltrimethylammonium chloride]
[1]; systemic / clinical chemistry / protein / protein
  LEL: 25 mg/kg/day
[1]; systemic / clinical chemistry / protein / protein + systemic / in life observation / mortality / mortality + systemic / organ weight / heart…
  NEL: 12.5 mg/kg/day
[1]; [22]
  LOAEL: > 100 mg/kg/day
  NOAEL: ≥ 100 mg/kg/day
[2]; [23]
  LOAEL: > 100 mg/kg/day
  NOAEL: ≥ 100 mg/kg/day
[2]; [24]
  LEL: 12.5 mg/kg/day
  NEL: < 12.5 mg/kg/day

## O=C([O-])C(F)(F)C(F)(F)C(F)(F)C(F)(F)C(F)(F)C(F)(F)C(F)(F)F.[NH4+] [PFOA, ammonium salt]
[3]; [25]
  LEL: 30 mg/kg/day
  LOAEL: > 30 mg/kg/day
  NEL: 10 mg/kg/day
  NOAEL: ≥ 30 mg/kg/day
[3]; [26]
  LOAEL: > 30 mg/kg/day
  NOAEL: ≥ 30 mg/kg/day
[3]; [27]
  LEL: 1 mg/kg/day
  NEL: < 1 mg/kg/day
[4]; [28]
  LEL: 50 mg/kg/day
  LOAEL: > 50 mg/kg/day
  NEL: 5 mg/kg/day
  NOAEL: ≥ 50 mg/kg/day
[4]; [29]
  LEL: 50 mg/kg/day
  LOAEL: 50 mg/kg/day
  NEL: 5 mg/kg/day
  NOAEL: 5 mg/kg/day
[5]
  LEL: 1.3 mg/kg/day
  LOAEL: > 14.2 mg/kg/day
  NEL: < 1.3 mg/kg/day
  NOAEL: ≥ 14.2 mg/kg/day
[6]
  LEL: 15 mg/kg/day
  LOAEL: > 15 mg/kg/day
  NEL: < 15 mg/kg/day
  NOAEL: ≥ 15 mg/kg/day
[7]; systemic / clinical chemistry / alkaline phosphatase (alp/alk) / alkaline phosphatase (alp/alk) + systemic / clinical chemistry / urea …
  NEL: 0.5 mg/kg/day
[7]; systemic / organ weight / kidney / absolute
  LEL: 1.5 mg/kg/day
[7]; [30]
  LOAEL: > 50 mg/kg/day
  NOAEL: ≥ 50 mg/kg/day

## CCCCCCCCOC(C)=O [Octyl acetate]
[8]; [31]
  LOAEL: > 1000 mg/kg/day
  NEL: 100 mg/kg/day
  NOAEL: ≥ 1000 mg/kg/day
[8]; systemic / in life observation / body weight / body weight + systemic / in life observation / food consumption / food consumption
  LEL: 500 mg/kg/day
[9]; systemic / in life observation / body weight / body weight + systemic / in life observation / food consumption / food consumption + systemic…
  NEL: 100 mg/kg/day
[9]; [32]
  LOAEL: > 1000 mg/kg/day
  NOAEL: ≥ 1000 mg/kg/day
[9]; [33]
  LEL: 500 mg/kg/day

## CCCCC(C#N)(Cn1cncn1)c1ccc(Cl)cc1 (stereo not drawn) [Myclobutanil]
[10]; [34]
  LEL: 200 mg/kg/day
  LOAEL: 200 mg/kg/day
  NEL: 60 mg/kg/day
  NOAEL: 60 mg/kg/day
[10]; [35]
  LEL: 200 mg/kg/day
  LOAEL: 200 mg/kg/day
  NEL: 60 mg/kg/day
  NOAEL: 60 mg/kg/day
[11]; [36]
  LEL: 9.84 mg/kg/day
  LOAEL: 9.84 mg/kg/day
[11]; [37]
  NEL: 2.49 mg/kg/day
  NOAEL: 2.49 mg/kg/day
[12]; [38]
  LOAEL: 5 mg/kg/day
[12]; [39]
  NEL: 0.25 mg/kg/day
  NOAEL: 0.25 mg/kg/day
[12]; systemic / pathology microscopic / liver / hypertrophy + systemic / pathology microscopic / kidney / inflammation
  LEL: 5 mg/kg/day
[13]; [40]
  LOAEL: 150 mg/kg/day
  NEL: 45 mg/kg/day
  NOAEL: 45 mg/kg/day
[13]; systemic / pathology microscopic / adrenal gland / hypertrophy + systemic / pathology microscopic / liver / necrosis + systemic / pathology …
  LEL: 150 mg/kg/day
[14]; [33]
  LEL: 0.4 mg/kg/day
  NEL: < 0.4 mg/kg/day
[14]; [38]
  LOAEL: 14.3 mg/kg/day
[14]; systemic / pathology microscopic / liver / hypertrophy + systemic / organ weight / liver / relative to body weight + systemic / organ weight…
  NOAEL: 3.09 mg/kg/day
[15]; [41]
  LEL: 313 mg/kg/day
  LOAEL: 313 mg/kg/day
  NEL: 93.8 mg/kg/day
  NOAEL: 93.8 mg/kg/day
[15]; [42]
  LEL: 313 mg/kg/day
  LOAEL: 313 mg/kg/day
[15]; [43]
  NEL: 93.8 mg/kg/day
  NOAEL: 93.8 mg/kg/day
[16]
  LEL: 394 mg/kg/day
  LOAEL: 394 mg/kg/day
  NEL: < 394 mg/kg/day
  NOAEL: < 394 mg/kg/day
[17]; [44]
  NEL: 10 mg/kg/day
  NOAEL: 10 mg/kg/day
[17]; [45]
  LEL: 50 mg/kg/day
  LOAEL: 50 mg/kg/day
[17]; [46]
  NEL: 2.5 mg/kg/day
  NOAEL: 2.5 mg/kg/day
[17]; [47]
  LEL: 10 mg/kg/day
  LOAEL: 10 mg/kg/day
[17]; [48]
  LEL: 10 mg/kg/day
  LOAEL: 50 mg/kg/day
  NEL: 2.5 mg/kg/day
  NOAEL: 10 mg/kg/day
[18]
  LEL: 125 mg/kg/day
  LOAEL: > 125 mg/kg/day
  NEL: < 125 mg/kg/day
  NOAEL: ≥ 125 mg/kg/day
[19]; [49]
  LEL: 15 mg/kg/day
  NEL: < 15 mg/kg/day
[19]; systemic / organ weight / kidney / nos + systemic / organ weight / liver / nos
  LOAEL: 150 mg/kg/day
[19]; systemic / organ weight / kidney / nos + systemic / organ weight / liver / nos + systemic / clinical chemistry / albumin-globulin ratio / …
  NOAEL: 50 mg/kg/day
[20]; [49]
  LEL: 16.5 mg/kg/day
  LOAEL: 16.5 mg/kg/day
[20]; [50]
  NEL: 3.2 mg/kg/day
  NOAEL: 3.2 mg/kg/day
[21]; [38]
  LOAEL: 14.3 mg/kg/day
[21]; [51]
  NEL: 3.09 mg/kg/day
  NOAEL: 3.09 mg/kg/day
[21]; systemic / pathology microscopic / liver / hypertrophy + systemic / hematology / mean corpuscular hemoglobin (mch) / mean corpuscular …
  LEL: 14.3 mg/kg/day
